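The compound was tested at five concentrations on cells cultured in 96-well plates, with a 48-hour exposure period. GI50 marks 50% less growth. TGI marks complete inhibition of growth.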
What was measured:
Experiment in all cases: NCI tumour cell line growth inhibition, 48 h
[1] = tested on: T-47D breast
[2] = tested on: SK-MEL-28 melanoma
[3] = tested on: SN12C renal
[4] = tested on: UACC-257 melanoma
[5] = tested on: A549 NSCLC
[6] = tested on: HOP-62 NSCLC
[7] = tested on: HS 578T breast
[8] = tested on: OVCAR-4 ovarian
[9] = tested on: MALME-3M melanoma
[10] = tested on: SW-620 colon
[11] = tested on: LOX IMVI melanoma
[12] = tested on: MCF7 breast
[13] = tested on: CAKI-1 renal
[14] = tested on: COLO 205 colon
[15] = tested on: EKVX NSCLC
[16] = tested on: NCI-H23 lung
[17] = tested on: PC-3 prostate
[18] = tested on: U251 CNS
[19] = tested on: MDA-MB-231 breast
[20] = tested on: UACC-62 melanoma
[21] = tested on: SF-268 CNS
[22] = tested on: UO-31 renal
[23] = tested on: BT-549 breast
[24] = tested on: SK-MEL-5 melanoma
[25] = tested on: ACHN renal
[26] = tested on: HCT-15 colon
[27] = tested on: A498 renal

With COc1ccc2nc(NC(=O)COc3cc(/C=C\c4cc(OC)c(OC)c(OC)c4)ccc3OC)sc2c1 the TGI [1] was > 100 µM, the GI50 [2] was 4.41 µM and the TGI [2] was > 100 µM. The GI50 [3] was 5.75 µM, the TGI [3] was > 100 µM and the GI50 [4] was 63.9 µM. For the same compound, the TGI [4] was > 100 µM, the GI50 [5] was 5.18 µM and the TGI [5] was > 100 µM. The GI50 [6] was 23.3 µM, the TGI [6] was > 100 µM and the GI50 [7] was 4.15 µM. For the same compound, the TGI [7] was > 100 µM, the GI50 [8] was 5.31 µM and the TGI [8] was > 100 µM. The GI50 [9] was > 100 µM, the TGI [9] was > 100 µM and the GI50 [10] was 5.1 µM. For the same compound, the TGI [10] was > 100 µM, the GI50 [11] was 4.17 µM and the TGI [11] was > 100 µM. The GI50 [12] was 2.88 µM, the TGI [12] was > 100 µM and the GI50 [13] was 3.2 µM. The TGI [13] was > 100 µM, the GI50 [14] was 3.89 µM and the TGI [14] was > 100 µM. For the same compound, the GI50 [15] was 5.11 µM, the TGI [15] was > 100 µM and the GI50 [16] was 3.91 µM. For the same compound, the TGI [16] was > 100 µM, the GI50 [17] was 4.45 µM and the TGI [17] was > 100 µM. The GI50 [18] was 4 µM, the TGI [18] was > 100 µM and the GI50 [19] was 5.4 µM. The TGI [19] was > 100 µM, the GI50 [20] was 5.93 µM and the TGI [20] was > 100 µM. The GI50 [21] was 4.31 µM, the TGI [21] was > 100 µM and the GI50 [22] was 4.31 µM. For the same compound, the TGI [22] was > 100 µM, the GI50 [23] was 21.2 µM and the TGI [23] was > 100 µM. For the same compound, the GI50 [24] was 2.68 µM, the TGI [24] was 38.4 µM and the GI50 [25] was 7.77 µM. For the same compound, the TGI [25] was > 100 µM, the GI50 [26] was 2.89 µM and the TGI [26] was > 100 µM. For the same compound, the GI50 [27] was 3.5 µM and the TGI [27] was > 100 µM.

— PubChem BioAssay (NCI)
